Test results as given in patent US9469615B2, “Quinoxalines and AZA-quinoxalines as CRTH2 receptor modulators” (Merck Sharp & Dohme Corp., priority 2010, dated 2016).

Target: T1, hCRTH2 (Homo sapiens, UniProt Q9Y5Y4)
T1 construct: expressed in transfected cells; host or cells: HEK (human embryonic kidney) cells expressing hCRTH2; membrane preparation
T1 sequence (Q9Y5Y4 1-395): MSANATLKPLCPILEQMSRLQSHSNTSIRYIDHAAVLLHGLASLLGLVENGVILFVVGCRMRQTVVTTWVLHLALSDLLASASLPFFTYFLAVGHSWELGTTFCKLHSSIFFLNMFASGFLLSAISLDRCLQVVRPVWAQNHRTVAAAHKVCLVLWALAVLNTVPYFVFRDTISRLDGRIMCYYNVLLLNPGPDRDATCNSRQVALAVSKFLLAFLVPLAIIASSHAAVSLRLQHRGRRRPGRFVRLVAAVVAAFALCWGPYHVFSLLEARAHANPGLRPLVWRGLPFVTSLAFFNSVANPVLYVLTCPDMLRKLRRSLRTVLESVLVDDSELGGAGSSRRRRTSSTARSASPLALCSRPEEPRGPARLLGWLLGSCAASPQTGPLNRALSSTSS
Assay: Radioligand binding assay ([3H]PGD2 competition, HEK-hCRTH2 membranes)
Conditions: [3H]PGD2 binding, rated A-E (Table A)
Summary of the method: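 Filter-bound radioactivity was counted by scintillation after 60 min incubations at room temperature. Membranes (8-20 μg) from HEK cells expressing hCRTH2 competed test ligands against 3.0 nM [3H]PGD2 in Tris-HCl pH 7.4 buffer with EDTA and 2 mM MnCl2; 10 μM PGD2 set non-specific binding.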

**Q.** Cn1cc(-c2nc3ccc(C(=O)N4CCC(c5ccccc5)CC4)cc3nc2CCCCC(=O)O)cn1 [26T, 3-(1-methyl-1H-pyrazol-4-yl)-7-[(4-phenyl-1-piperidinyl)carbonyl]-2-quinoxalinepentanoic acid] was tested. Which Ki did it give?
**A.** 2.1 to 20 nM

**Q.** Which Ki does the source give for CC(=O)c1ccccc1-c1nc2ccc(C(=O)N3CCC(c4ccccc4)CC3)cc2nc1CCCCC(=O)O [26U, 3-(2-acetylphenyl)-7-[(4-phenyl-1-piperidinyl)carbonyl]-2-quinoxalinepentanoic acid] here?
**A.** 2.1 to 20 nM

**Q.** Which Ki does the source give for COc1cc(C(F)(F)F)ccc1-c1nc2ccc(C(=O)N3CCC(c4ccccc4)CC3)cc2nc1CCCCC(=O)O [26V, 3-[2-methoxy-4-(trifluoromethyl)phenyl]-7-[(4-phenyl-1-piperidinyl)carbonyl]-2-quinoxalinepentanoic acid] here?
**A.** 0.1 to 2 nM

**Q.** With COc1ccc(-c2nc3ccc(C(=O)N4CCC(c5ccccc5)CC4)cc3nc2CCCCC(=O)O)c(Cl)c1 [26W, 3-(2-chloro-4-methoxyphenyl)-7-[(4-phenyl-1-piperidinyl)carbonyl]-2-quinoxalinepentanoic acid] as the compound, how does the Ki read?
**A.** 0.1 to 2 nM

**Q.** How did the Ki turn out when CS(=O)(=O)c1ccc(-c2nc3ccc(C(=O)N4CCC(c5ccccc5)CC4)cc3nc2CCCCC(=O)O)cc1 [26X] was run?
**A.** 20.1 to 200 nM

**Q.** For O=C(O)CCCCc1nc2cc(C(=O)N3CCC(c4ccccc4)CC3)ccc2nc1-c1ccc(Cl)cc1Cl [26Y, 3-(2,4-dichlorophenyl)-7-[(4-phenyl-1-piperidinyl)carbonyl]-2-quinoxalinepentanoic acid], which Ki is on record?
**A.** 0.1 to 2 nM

**Q.** For COc1ccc(-c2nc3ccc(C(=O)N4CCC(c5ccccc5)CC4)cc3nc2CCCCC(=O)O)c(OC)c1 [26Z, 3-(2,4-dimethoxyphenyl)-7-[(4-phenyl-1-piperidinyl)carbonyl]-2-quinoxalinepentanoic acid], which Ki is on record?
**A.** 0.1 to 2 nM

**Q.** For O=C(O)CCCCc1nc2cc(C(=O)N3CCC(c4ccccc4)C3)ccc2nc1-c1cc(F)cc(F)c1 (stereo not drawn) [26i, 3-(3,5-difluorophenyl)-7-[(3-phenyl-1-pyrrolidinyl)carbonyl]-2-quinoxalinepentanoic acid], which Ki is on record?
**A.** 2.1 to 20 nM

**Q.** Which Ki does the source give for COc1ccc(-c2nc3ccc(C(=O)N4CCC(c5ccccc5)CC4)cc3nc2CCCCC(=O)O)cc1 [26o, 3-(4-methoxyphenyl)-7-[(4-phenyl-1-piperidinyl)carbonyl]-2-quinoxalinepentanoic acid] here?
**A.** 0.1 to 2 nM

**Q.** C[C@@H](NC(=O)c1ccc2nc(-c3ccc(Cl)cc3)c(CC3CC(C(=O)O)C3)nc2c1)c1ccc(F)cc1 (stereo partly drawn) [30E] was tested. Which Ki did it give?
**A.** 2.1 to 20 nM

**Q.** For O=C(O)CCCCc1nc2cc(C(=O)N3CC(c4nc5ccccc5o4)C3)ccc2nc1-c1ccccc1 [31C], which Ki is on record?
**A.** 2.1 to 20 nM

**Q.** How did the Ki turn out when C[C@@H](NC(=O)c1ccc2nc(-c3ccccc3)c(NCCCC(=O)O)nc2c1)c1ccc(F)cc1 [44D, (R)-4-((7-((1-(4-fluorophenyl)ethyl)carbamoyl)-3-phenylquinoxalin-2-yl)amino)butanoic acid] was run?
**A.** 2.1 to 20 nM

**Q.** O=C(O)CCCNc1nc2cc(C(=O)N[C@@H]3CCCc4cc(F)ccc43)ccc2nc1-c1ccccc1 [44E, (R)-4-((7-((6-fluoro-1,2,3,4-tetrahydronaphthalen-1-yl)carbamoyl)-3-phenylquinoxalin-2-yl)amino)butanoic acid] was tested. Which Ki did it give?
**A.** 2.1 to 20 nM

**Q.** Which Ki does the source give for O=C(O)CCCNc1nc2cc(C(=O)N3CCN(c4ccccc4)CC3)ccc2nc1-c1ccccc1 [44F, 4-((3-phenyl-7-(4-phenylpiperazine-1-carbonyl)quinoxalin-2-yl)amino)butanoic acid] here?
**A.** 2.1 to 20 nM

**Q.** C[C@@H](NC(=O)c1ccc2nc(-c3ccccc3)c(NCCCC(=O)O)nc2c1)c1ccc(C#N)cc1 [44G] was tested. Which Ki did it give?
**A.** 20.1 to 200 nM

**Q.** For O=C(O)CCCNc1nc2cc(C(=O)N3CCN(c4ccc(F)cc4)CC3)ccc2nc1-c1ccccc1 [44H, 4-((7-(4-(4-fluorophenyl)piperazine-1-carbonyl)-3-phenylquinoxalin-2-yl)amino)butanoic acid], which Ki is on record?
**A.** 2.1 to 20 nM

**Q.** How did the Ki turn out when O=C(O)CCCNc1nc2cc(C(=O)N3CCC(c4ccc(F)cc4)CC3)ccc2nc1-c1ccccc1 [44J, 4-((7-(4-(4-fluorophenyl)piperidine-1-carbonyl)-3-phenylquinoxalin-2-yl)amino)butanoic acid] was run?
**A.** 2.1 to 20 nM

**Q.** How did the Ki turn out when O=C(O)CCCNc1nc2cc(C(=O)N3CCC(c4ccc(Cl)cc4)CC3)ccc2nc1-c1ccccc1 [44K, 4-((7-(4-(4-chlorophenyl)piperidine-1-carbonyl)-3-phenylquinoxalin-2-yl)amino)butanoic acid] was run?
**A.** 0.1 to 2 nM

**Q.** With O=C(O)CCCNc1nc2cc(C(=O)N3CCN(c4ccc(Cl)cc4)CC3)ccc2nc1-c1ccccc1 [44L, 4-((7-(4-(4-chlorophenyl)piperazine-1-carbonyl)-3-phenylquinoxalin-2-yl)amino)butanoic acid] as the compound, how does the Ki read?
**A.** 2.1 to 20 nM

**Q.** How did the Ki turn out when O=C(O)CCCNc1nc2cc(C(=O)N3CC[C@H](c4ccccc4)C3)ccc2nc1-c1ccccc1 [44M, (R)-4-((3-phenyl-7-(3-phenylpyrrolidine-1-carbonyl)quinoxalin-2-yl)amino)butanoic acid] was run?
**A.** 2.1 to 20 nM

**Q.** How did the Ki turn out when C[C@@H]1CN(c2ccccc2)CCN1C(=O)c1ccc2nc(-c3ccccc3)c(NCCCC(=O)O)nc2c1 [44N, (R)-4-((7-(2-methyl-4-phenylpiperazine-1-carbonyl)-3-phenylquinoxalin-2-yl)amino)butanoic acid] was run?
**A.** 2.1 to 20 nM

**Q.** For O=C(O)CCCNc1nc2cc(C(=O)N[C@@H]3CCCc4ccccc43)ccc2nc1-c1ccccc1 [44i, (R)-4-((3-phenyl-7-((1,2,3,4-tetrahydronaphthalen-1-yl)carbamoyl)quinoxalin-2-yl)amino)butanoic acid], which Ki is on record?
**A.** 0.1 to 2 nM

**Q.** Which Ki does the source give for O=C(O)CCCCc1nc2cc(C(=O)C3CC3)ccc2nc1-c1cccc(F)c1 [compound 3, 5-[7-(Cyclopropanecarbonyl)-3-(3-fluorophenyl)quinoxalin-2-yl]pentanoic Acid] here?
**A.** 2.1 to 20 nM

**Q.** For C[C@H](NC(=O)c1ccc2nc(-c3ccc(C(F)(F)F)cc3)c(CCCCC(=O)O)nc2c1)c1cccc(-c2ccccc2)c1 [compound 4, (S)-5-{7-[1-(biphenyl-3-yl)ethylcarbamoyl]-3-[4-(trifluoromethyl)phenyl]quinoxalin-2-yl}pentanoic Acid], which Ki is on record?
**A.** 2.1 to 20 nM

**Q.** With O=C(O)CCCCc1nc2cc(C(=O)C3CC3)ccc2nc1-c1ccc(F)cc1 [compound 5, 5-(7-(cyclopropanecarbonyl)-3-(4-fluorophenyl)quinoxalin-2-yl)pentanoic acid] as the compound, how does the Ki read?
**A.** 0.1 to 2 nM

**Q.** How did the Ki turn out when CCC(=O)c1ccc2nc(-c3ccccc3)c(CCCCC(=O)O)nc2c1 [compound 6, 7-(1-oxopropyl)-3-phenyl-2-quinoxalinepentanoic acid] was run?
**A.** 0.1 to 2 nM

**Q.** How did the Ki turn out when CNC(=O)c1ccc2nc(-c3ccc(F)cc3)c(CCCCC(=O)O)nc2c1 [compound 7, 3-(4-fluorophenyl)-7-[(methylamino)carbonyl]-2-quinoxalinepentanoic acid] was run?
**A.** 2.1 to 20 nM

**Q.** Which Ki does the source give for O=C(O)CCCCc1nc2ccc(C(=O)NCc3cccc(Cl)c3)cc2nc1-c1ccccc1 [compound 8] here?
**A.** 20.1 to 200 nM

**Q.** For COC(=O)c1ccc2nc(-c3ccccc3)c(OCCCC(=O)O)nc2c1 [compound 9, 4-{[7-(Methoxycarbonyl)-3-phenylquinoxalin-2-yl]oxy}butanoic Acid], which Ki is on record?
**A.** 2.1 to 20 nM

**Q.** O=C(O)CCCOc1nc2cc(C(=O)NCc3cccnc3)ccc2nc1-c1ccccc1 [compound 10, 4-({3-Phenyl-7-[(pyridin-3-ylmethyl)carbamoyl]quinoxalin-2-yl}oxy)butanoic Acid] was tested. Which Ki did it give?
**A.** 2.1 to 20 nM

**Q.** Which Ki does the source give for O=C(O)CCCCc1nc2cc(NC(=O)Cc3ccc(Cl)c(Cl)c3)ccc2nc1-c1ccccc1 [compound 11] here?
**A.** 20.1 to 200 nM

**Q.** With O=C(O)CCCCc1nc2cc(NS(=O)(=O)Cc3ccccc3)ccc2nc1-c1ccccc1 [compound 12, 5-{7-[(benzylsulfonyl)amino]-3-phenylquinoxalin-2-yl}pentanoic Acid] as the compound, how does the Ki read?
**A.** 201 to 700 nM

**Q.** How did the Ki turn out when COC(=O)c1cnc2nc(-c3ccccc3)c(CCCCC(=O)O)nc2c1 [compound 13, 5-[7-(Methoxycarbonyl)-3-phenylpyrido[2,3-b]pyrazin-2-yl]pentanoic Acid] was run?
**A.** 20.1 to 200 nM

**Q.** How did the Ki turn out when O=C(O)CCCCc1nc2cc(C(=O)NCc3ccc(C(F)(F)F)cc3)cnc2nc1-c1ccccc1 [compound 14] was run?
**A.** 2.1 to 20 nM

**Q.** Which Ki does the source give for O=C(O)CCCCc1nc2cc(C(=O)NCc3ccc(Cl)cc3)ccc2nc1-c1ccc(Cl)cc1 [compound 16] here?
**A.** 0.1 to 2 nM

**Q.** For CC(CCc1nc2cc(C(=O)N3CCC(c4ccccc4)CC3)ccc2nc1-c1ccc(Cl)cc1)CC(=O)O (stereo not drawn) [compound 17, 3-(4-chlorophenyl)-beta-methyl-7-[(4-phenyl-1-piperidinyl)carbonyl]-2-quinoxalinepentanoic acid], which Ki is on record?
**A.** 2.1 to 20 nM

**Q.** With CC(CCCc1nc2cc(C(=O)N3CCC(c4ccccc4)CC3)ccc2nc1-c1ccc(C(F)(F)F)cc1)C(=O)O (stereo not drawn) [compound 18, alpha-methyl-7-[(4-phenyl-1-piperidinyl)carbonyl]-3-[4-(trifluoromethyl)phenyl]-2-quinoxalinepentanoic acid] as the compound, how does the Ki read?
**A.** 2.1 to 20 nM

**Q.** O=C(O)Cc1cccc(CCc2nc3cc(C(=O)N4CCC(c5ccccc5)CC4)ccc3nc2-c2ccc(Cl)cc2)c1 [compound 19, 2-(3-(2-(3-(4-chlorophenyl)-7-(4-phenylpiperidine-1-carbonyl)quinoxalin-2-yl)ethyl)phenyl)acetic acid] was tested. Which Ki did it give?
**A.** 2.1 to 20 nM

**Q.** For C[C@H](c1ccccc1)N(C)C(=O)c1ccc2nc(-c3ccc(F)cc3)c(CCCCC(=O)O)nc2c1 [compound 21, (R)-5-(3-(4-fluorophenyl)-7-(methyl(1-phenylethyl)carbamoyl)quinoxalin-2-yl)pentanoic acid], which Ki is on record?
**A.** 0.1 to 2 nM

Same assay, conditions: [3H]PGD2 binding, values in text

**Q.** With COc1ccc(-c2nc3ccc(C(=O)N4CCC(c5ccccc5)CC4)cc3nc2CCCCC(=O)O)cc1 [26o, 3-(4-methoxyphenyl)-7-[(4-phenyl-1-piperidinyl)carbonyl]-2-quinoxalinepentanoic acid] as the compound, how does the Ki read?
**A.** 1.4 nM

**Q.** With O=C(O)CCCNc1nc2cc(C(=O)N3CCN(c4ccc(F)cc4)CC3)ccc2nc1-c1ccccc1 [44H, 4-((7-(4-(4-fluorophenyl)piperazine-1-carbonyl)-3-phenylquinoxalin-2-yl)amino)butanoic acid] as the compound, how does the Ki read?
**A.** 3.1 nM

**Q.** For O=C(O)CCCCc1nc2cc(C(=O)C3CC3)ccc2nc1-c1cccc(F)c1 [compound 3, 5-[7-(Cyclopropanecarbonyl)-3-(3-fluorophenyl)quinoxalin-2-yl]pentanoic Acid], which Ki is on record?
**A.** 3.2 nM
